The source of these data is publication PMC9936496, “Azobenzene-Based Amino Acids for the Photocontrol of Coiled-Coil Peptides” (Bioconjugate Chemistry, 2023).

On the set-up of data set [1]: method as in 2 sources, ref 29 = [29]; PMID 16287231; doi:10.1021/bc049724g; Nakayama K.; Endo M.; Majima T. A Hydrophilic Azobenzene-Bearing Amino Acid for Photochemical Control of a Restriction Enzyme BamHI . Bioconjugate Chem. 2005 , 16 , 1360 – 1366 . 10.1021/bc049724g . ||| ref 33 = [33]; PMID 31495713; doi:10.1016/j.chembiol.2019.08.006; Kneuttinger A. C.; Straub K.; Bittner P.; Simeth N. A.; Bruckmann A.; Busch F.; Rajendran C.; Hupfeld E.; Wysocki V. H.; Horinek D.; et al. Light Regulation of Enzyme Allostery through Photo. The settings on record: cited from earlier work.

For data set [2] the following is noted: cited from earlier work.
A further data set deals with E3GY. Description: CD thermal unfolding curves fitted to a dimeric coiled-coil binding model. The conditions noted are these: coiled coil with E3GY; for Kf (folding constant) / Kd: binding model at 20 °C; for Kd: read-out: Ku (unfolding constant). The procedure: CD melting curves measured at different concentrations were fitted to a coiled-coil binding model (Figures S2 and S3).[39]
CD spectra were recorded on a Jasco J-815 CD spectrometer fitted with a Peltier temperature controller. Spectra were recorded in a 2 mm quartz cuvette at 20 °C using either PBS or low-salt buffer (2 mM NaCl, 10 mM phosphate) at pH 7.4. Spectra were recorded between 190 and 280 nm with 1 nm intervals at a scan rate of 100 nm/min with five subsequent spectra averaged to minimize noise. […] Thermal melting curves were generated by recording θ222nm between 5 and 90 °C at a speed of 1 °C/min. If irradiated samples were used, samples were reilluminated every 30 min. Melting curves were measured at four different concentrations and fitted using the Fitdis software package.[39]

Data set [3] is classed as physicochemical. The conditions noted are these: K3-APgly in PBS versus 10 in MeCN. The procedure: For the potential application of K3-APgly in an active system, for example, for membrane fusion, the stability of the photoswitch to repeated light exposures (photocycling) is required. […] Finally, the peptide was irradiated with the 340 nm PSS and allowed to thermally relax, showing 65% recovery in 69 h.
Figure 4 Photocycling of K3-APgly between the dark-adapted, 340 and 435 nm PSS (left), thermal relaxation of the peptide after […] (middle) and distribution of the absorbance in the different states during cycling (right).

The nature of data set [4]: Thermal relaxation of Fmoc-APgly from cis to trans followed by HPLC. Format: physicochemical. The conditions noted are these: after irradiation with 340 nm light, in MeCN at 20 °C. An excerpt:
(§1) Figure 3 HPLC analysis of the photoswitching behavior of Fmoc-APgly, and the effect of azobenzene isomerization in peptide K3-APgly. (A) Chromatography traces of Fmoc-APgly in the dark state and after irradiation with different wavelengths of light, complete traces can be found in Figure S5. (B) Thermal relaxation of Fmoc-APgly from cis to trans as followed by HPLC. (C) Percentage of the trans and cis isomers in solution at the different PSSs; error bars indicate difference in deviation between repeat samples. (D) UV–vis spectra showing the spectra of K3-APgly in the dark and after irradiation with 340 or 435 nm light. (E) CD spectra showing the effect of photoisomerization on the structure of K3-Apgly by itself and as a coiled-coil with E3GY. […] Illumination and relaxation studies of the amino acid were performed in MeCN at 20 °C. Peptide spectra were recorded at 20 °C in PBS with [peptide] = 50 μM. […]
(§2) Analytical HPLC was performed using a Shimadzu Prominence-i LC-2030C 3D system fitted with a 4.6 × 50 mm Phenomenex Kinetex Evo C18 column. The isomeric ratio of 10 was quantified using a linear gradient of 10–90% MeCN in water containing 0.1% TFA as buffer. For each measurement, 2 μL of a 200 mM solution of 10 was injected, and measurements were repeated three times for accuracy.

Data set [5] in a line: HPLC quantification of trans/cis isomer ratio at photostationary states. Format: physicochemical. The settings on record: measurements repeated three times. The procedure: As azobenzene photoswitches based on phenylglycine are not known in the literature, the photoswitching behavior of Fmoc-APgly (10) was analyzed first in order to assess its suitability as a photoswitch (Figure 3A–C). […] The largest ratio of […]-to-cis isomers via photoisomerization was achieved through irradiation with 385 nm light (83.2 ± 0.2% […]), with higher wavelengths showing very similar distributions.
as §1, §2

Setting [6] is: 340 nm irradiated state (predominantly cis).
[7] abbreviates: dark state (predominantly trans).

Where two headings read alike, the source gives them in different places. Starred links: 1 amine or outer side, 2 acyl side, 3 side chain; linkers in the order of their positions; H or OH if unused. Non-standard residues stand in square brackets, D forms with d. Residues, ends and D or L forms follow the SMILES beside them. X1 = O=C([C@@H](N[*:1])c1ccc(N=Nc2ccccc2)cc1)[*:2]

Consider `N[C@@H](Cc1ccc(N=Nc2ccc(C(=O)O)cc2)cc1)C(=O)O` [APhe2], for which the “PSS, cis isomer” value in data set [1] (using a mercury lamp) is 81%. In addition, the “reported half-life of thermal relaxation” value in data set [2] is reported as 2100 min.
`CC[C@H](C)[C@H](NC(=O)[C@H](CCCCN)NC(C)=O)C(=O)N[C@@H](C)C(=O)N[C@@H](C)C(=O)N[C@@H](CC(C)C)C(=O)N[C@@H](CCCCN)C(=O)N[C@@H](CCC(=O)O)C(=O)N[C@@H](CCCCN)C(=O)N[C@H](C(=O)N[C@@H](C)C(=O)N[C@@H](C)C(=O)N[C@@H](CC(C)C)C(=O)N[C@@H](CCCCN)C(=O)N[C@@H](CCC(=O)O)C(=O)N[C@@H](CCCCN)C(=O)N[C@H](C(=O)N[C@@H](C)C(=O)N[C@@H](C)C(=O)N[C@@H](CC(C)C)C(=O)N[C@@H](CCCCN)C(=O)N[C@@H](CCC(=O)O)C(N)=O)[C@@H](C)CC)c1ccc(N=Nc2ccccc2)cc1` [K3-APgly] (Ac-KIAALKEK[X1]AALKEKIAALKE-NH2): in the data set on E3GY (setting [6]), the “Kf (folding constant)” value is given as 2.97 × 10^5 M^–1 and the Kd turned out to be 3370 nM. In the data set on E3GY (setting [7]), the “Kf (folding constant)” value was 1.38 × 10^6 M^–1 and the Kd was found to be 720 nM. Besides, the “dark/340 nm PSS (fold difference in folding constant / binding affinity)” value in the data set with E3GY (ratio dark state to 340 nm PSS, 20 °C) came out at 4.65. Moreover, the “thermal relaxation, times slower than that observed for 10 in MeCN” value in data set [3] was 1.6.
As to `O=C(N[C@H](C(=O)O)c1ccc(N=Nc2ccccc2)cc1)OCC1c2ccccc2-c2ccccc21` [compound 10, N-Fmoc-4-(phenylazo)-L-phenylglycine], the “half-life of thermal relaxation cis to trans” value in data set [4] is recorded as 1690 min; in data set [4] (same value in hours), “≈ 28 h”. Moreover, the trans isomer was found to be 94.2 ± 0.2% in data set [5] (dissolved in MeCN, kept under dark conditions) and 83.2 ± 0.2% in data set [5] (irradiation with 385 nm light, MeCN, 20 °C). Moreover, in data set [5] (irradiated with 340 nm light, MeCN, 20 °C), the cis isomer stood at 91.3 ± 0.6%.
For the compound `N[C@@H](Cc1ccc(N=Nc2ccccc2)cc1)C(=O)O` [APhe1, Phenylazo-phenylalanine], the “PSS, cis isomer” value in data set [1] (using a LED light source) is 89%; in data set [1] (using a mercury lamp), 79%. The “reported half-life of thermal relaxation” value in data set [2] was 1600 min.
